We go through 15 molecules from ChEMBL document CHEMBL5390234 (Bioorg Med Chem Lett, 2023).

Data set [1] can be described thus: Apparent permeability of compound across apical to basolateral in human Caco-2 cells at 10 uM. It counts as ADME, cell-based. For orientation: Passage across Caco-2 layers is used to estimate intestinal permeability.
Data set [2] in a line: Volume of distribution at steady state in mouse. In kind it is ADME, organism-based. To be noted: in vivo, read-out: Vdss.
Data set [3] is described as follows: Oral bioavailability in mouse at 1 mg/kg or 0.5 mg/kg, iv. In kind it is ADME, organism-based. Particulars: in vivo.
Data set [4] can be described thus: Solubility of the compound in aqueous phosphate buffer at pH 7.4 incubated for 24 hrs. It counts as physicochemical.
A short description of data set [5]: Oral bioavailability in mouse at 30 mg/kg. In kind it is ADME, organism-based. Particulars: in vivo.
Data set [6] can be described thus: AUC (0 to t) in mouse plasma at 1 mg/kg, po. It counts as ADME, organism-based. More on the design: dose 1 mg/kg, route po.
A short description of data set [7]: AUC (0 to t) in mouse plasma at 30 mg/kg, po. In kind it is ADME, organism-based. More on the design: dose 30 mg/kg, route po.
Data set [8] can be described thus: Lipophilicity, logD of compound at pH 7.4. It counts as physicochemical. To be noted: buffer.

≈ marks a conversion by molar mass, not a printed value. Where only a bound is given, the exact number is not on record here.

As for `CC1(Nc2nc(N)nc3nc(-c4cc[nH]n4)ccc23)CC1`, the Papp A→B at 10 µM in data set [1] came to 4.2 ×10⁻⁶ cm/s. Further, the Vd in data set [2] was determined as 7.8 L/kg. For the same molecule, the bioavailability is 56% in data set [3] and 70% in data set [5]. The solubility at 24 h in data set [4] came out at 910 µM (≈ 256 µg/mL). Moreover, the AUC(0-t) in data set [6] turned out to be 0.2 µM·h; in data set [7], 7.5 µM·h.

With `Nc1nc(NCCn2cccn2)c2ccc(-c3cc[nH]n3)nc2n1`, in data set [8], the logD amounted to 1.4.

Molecule `CCNc1nc(N)nc2cc(-c3cc[nH]n3)ccc12` registered a logD in data set [8] of 1.8.

`CCNc1nc(N)nc2cc(-n3cccn3)ccc12` yielded a logD in data set [8] of 1.8.

With `c1cnn(CCNc2ccnc3cc(-n4cccn4)ccc23)c1`, in data set [8], the logD came out at 1.8.

With `Nc1nc(NC2CC2)c2ccc(-c3cc[nH]n3)nc2n1`, in data set [1], the Papp A→B at 10 µM worked out at 3.7 ×10⁻⁶ cm/s. In addition, in data set [2], the Vd turned out to be 13 L/kg. Further, the bioavailability in data set [3] turned out to be 7.5%. Also, the solubility at 24 h in data set [4] is > 1000 µM.

The molecule `CCNc1nc(N)nc2cc(-n3cccn3)cnc12` showed a log distribution coefficient (logD) in data set [8] of 2.1.

For the molecule `Nc1cc(NCCn2cccn2)c2ccc(-n3cccn3)cc2n1`, in data set [1], the Papp A→B at 10 µM came to 2.3 ×10⁻⁶ cm/s. For the same molecule, the Vd in data set [2] is 3.1 L/kg. The bioavailability in data set [3] came to 1.1%. Moreover, in data set [8], the logD came to 1.7.

As for `CC1(Nc2nc(N)nc3cc(-c4cc[nH]n4)ccc23)CC1`, the Papp A→B at 10 µM in data set [1] worked out at 9 ×10⁻⁶ cm/s. For the same molecule, the Vd in data set [2] stood at 4.7 L/kg. Moreover, the bioavailability in data set [3] was found to be 25%. Besides, the solubility at 24 h in data set [4] was > 1000 µM.

Take `CCNc1nc(N)nc2nc(-n3cccn3)ccc12`: the logD in data set [8] turned out to be 2.

In turn, `CCNc1cc(N)nc2cc(-n3cccn3)ccc12` returned a logD in data set [8] of 1.5.

As for `CCNc1nc(N)nc2nc(-c3ccc[nH]c3=O)ccc12`, the logD in data set [8] is 0.8.

Take `Nc1cc(NCCn2cccn2)c2ccccc2n1`: the logD in data set [8] came out at 0.5.

For the molecule `CCNc1nc(N)nc2nc(-c3cc[nH]n3)ccc12`, in data set [8], the logD worked out at 1.4.

Regarding `CCN(Cc1nc2c(N)nc3cc(-c4cc[nH]n4)ccc3c2[nH]1)C(C)=O` [BMS-986299], the Papp A→B at 10 µM in data set [1] turned out to be 0.6 ×10⁻⁶ cm/s. Besides, the Vd in data set [2] was determined as 0.8 L/kg. Besides, in data set [8], the logD was found to be 1.8.

Broadly, the Papp A→B is the apparent permeability from the apical to the basolateral side of a cell layer. One may read the bioavailability as the share of a dose that reaches the circulation, judged against a reference dose that is usually intravenous. Low values mean little systemic uptake, high ones much systemic uptake. As usually defined, the solubility is how much of the substance goes into solution per volume. A low value points to a poorly soluble substance. Broadly, the AUC(0-t) is the area under the concentration-time curve up to a stated or last time point. In general, logD refers to lipophilicity at a set pH, counting ionised and neutral species. A low value points to lower lipophilicity.
